Results from patent US7432276B2, “ABCA1 elevating compounds” (CV Therapeutics, Inc., priority 2005, dated 2008).

These molecules were tested on ABCA1 mRNA (assay: ABCA1 mRNA induction in THP-1 cells, QuantiGene branched DNA assay). Settings: 10 μM test compound, 18-20 hours.
Assay type: cell-based
Protocol: Modulation of expression of ABCA1 mRNA levels by the compounds of the invention was determined in the following assays.
Induction of ABC1 in THP-1 cells, was measured using QuantiGene® branched DNA assay as per manufacturer's instructions. Cultures of THP-1 were grown to subconfluence in DMEM/10% FBS before replacement with DMEM/BSA and 10 and 3 μM concentrations of the test compounds in DMSO for 18-20 hours. After treatment of cells with compounds, the cells were lysed with lysis buffer at 37° C. for 20 minutes. The cell lysate and ABCA1 specific probe (Genospectra, Inc., Fremont, Calif.) mix were added to the 96 well capture plate and hybridized at 53° C. for 16-18 hours. The signal was amplified using the amplifier and label probes provided with the QuantiGene® assay followed by addition of a luminescent alkaline phosphatase substrate, dioxitane. Luminescence was quantified in Victor V plate reader.
Step 1 • Cells are lysed to release mRNA in the presence of target probes. Target mRNA from lysed cells was then captured by hybridization and transferred to the Capture Plate.
Step 2 • Signal amplification was performed by hybridization of the bDNA Amplifier and Label Probe.
Step 3 • Addition of chemiluminescence substrate yielded a QuantiGene® signal proportional to the amount of mRNA present in the sample.
Table 1 presents the relative fold increase in ABCA1 expression over DMSO for various compounds of the invention when tested at a concentration of […].
With `COc1cccc2c1[C@H]1Nc3ccc(C(=O)N4CCN(C(=O)OC(C)(C)C)CC4)cc3C(C)(C)[C@H]1CO2` [Number 125, ((6aR,12aS)-6a,7,12,12a-tetrahydro-1-methoxy-7,7-dimethyl-6H-chromeno[4,3-b]quinolin-9-yl)(4-tert-butyl-carboxylate-piperazin-1-yl)methanone] the “ABCA1 Induction Fold Increase over DMSO Vehicle” value (“ABCA1 Induction Fold Increase” below) was 4.1 FOLD INCREASE. With `Cc1cc(Cl)cc2c1OCC1C2Nc2ccc(C(O)(C(F)(F)F)C(F)(F)F)cc2C1(C)C` (centres unmarked) [Number 69, 2-(2-chloro-4,7,7-trimethyl(7,12,12a,6a-tetrahydrochromano[4,3-b]quinolin-9-yl))-1,1,1,3,3,3-hexafluoropropan-2-ol] the “ABCA1 Induction Fold Increase” value was 2.6 FOLD INCREASE. `COc1cccc2c1[C@H]1Nc3ccc(N4CCS(=O)(=O)CC4)cc3C(C)(C)[C@H]1CO2` [Number 72, 4-((12aS,6aR)-1-methoxy-7,7-dimethyl-7,12,12a,6a-tetrahydrochromano[4,3-b]quinolin-9-yl)-1,4-thiazaperhydroine-1,1-dione] was tested, and the “ABCA1 Induction Fold Increase” value was 8.4 FOLD INCREASE. For “methylethyl 3-(4-methoxy-7,7-dimethyl-7,12-dihydro-6H-chromeno[4,3-b]quinolin-9-yl)benzoate [Number 61]”, the “ABCA1 Induction Fold Increase” value was 2.0 FOLD INCREASE. In the case of `COc1cccc2c1OC[C@@H]1[C@H]2Nc2ccc(N3CCS(=O)(=O)CC3)cc2C1(C)C` [Number 20, 4-((6aS,12aR)-4-methoxy-7,7-dimethyl-7,12,12a,6a-tetrahydrochromano[4,3-b]quinolin-9-yl)-1,4-thiazaperhydroine-1,1-dione], the “ABCA1 Induction Fold Increase” value is reported as 6.5 FOLD INCREASE. With `COc1cccc2c1OC[C@@H]1[C@H]2Nc2ccc(OC(F)(F)F)cc2C1(C)C` [Number 52, ((6aS,12aR)-4-methoxy-7,7-dimethyl(7,12,12a,6a-tetrahydrochromano[4,3-b]quinolin-9-yloxy))trifluoromethane] the “ABCA1 Induction Fold Increase” value was 9.5 FOLD INCREASE. In the case of `CC(C)=CCOC(=O)c1ccc2c(c1)OC[C@@H]1[C@H]2Nc2ccc(B(O)O)cc2C1(C)C` [Number 10, 3-methylbut-2-enyl (6aS,12aR)-9-(dihydroxyboramethyl)-7,7-dimethyl-7,12,12a,6a-tetrahydrochromano[4,3-b]quinoline-3-carboxylate], the “ABCA1 Induction Fold Increase” value is reported as 1.5 FOLD INCREASE. With `COc1cccc2c1OC[C@H]1[C@@H]2Nc2ccc(Br)cc2C1(C)C` [Number 86, (12aS,6aR)-9-bromo-4-methoxy-7,7-dimethyl-7,12,12a,6a-tetrahydrochromano[4,3-b]quinoline] the “ABCA1 Induction Fold Increase” value was 8.4 FOLD INCREASE. In the case of `COc1cccc2c1OCC1C2Nc2ccc(Cc3nnn[nH]3)cc2C1(C)C` (centres unmarked) [Number 76, 4-methoxy-7,7-dimethyl-9-(1,2,3,4-tetraazol-5-ylmethyl)-7,12,12a,6a-tetrahydrochromano[4,3-b]quinoline], the “ABCA1 Induction Fold Increase” value is reported as 6.0 FOLD INCREASE. For `COc1cccc2c1[C@H]1Nc3ccc(-c4ccc(CO)cc4)cc3C(C)(C)[C@@H]1CO2` [Number 98, [4-((12aS,6aS)-1-methoxy-7,7-dimethyl-7,12,12a,6a-tetrahydrochromano[4,3-b]quinolin-9-yl)phenyl]methan-1-ol], the “ABCA1 Induction Fold Increase” value was 5.2 FOLD INCREASE. With `CC1(C)c2cc(C(N)=O)ccc2NC2c3cc(Br)ccc3OCC21` (centres unmarked) [Number 5, 2-bromo-7,7-dimethyl-7,12,12a,6a-tetrahydrochromano[4,3-b]quinoline-9-carboxamide] the “ABCA1 Induction Fold Increase” value was 3.5 FOLD INCREASE. In the case of `CC1(C)c2cc(C(O)(C(F)(F)F)C(F)(F)F)ccc2NC2c3cccc(F)c3OCC21` (centres unmarked) [Number 51, 1,1,1,3,3,3-hexafluoro-2-(4-fluoro-7,7-dimethyl(7,12,12a,6a-tetrahydrochromano[4,3-b]quinolin-9-yl))propan-2-ol], the “ABCA1 Induction Fold Increase” value is reported as 7.8 FOLD INCREASE. In the case of `COc1cccc2c1[C@H]1Nc3ccc(Br)cc3C(C)(C)[C@H]1CO2` [Number 85, (12aS,6aR)-9-bromo-1-methoxy-7,7-dimethyl-7,12,12a,6a-tetrahydrochromano[4,3-b]quinoline], the “ABCA1 Induction Fold Increase” value is reported as 8.0 FOLD INCREASE. For `COc1cccc2c1OCC1C2Nc2ccc(CC(=O)O)cc2C1(C)C` (centres unmarked) [Number 26, 2-(4-methoxy-7,7-dimethyl-7,12,12a,6a-tetrahydrochromano[4,3-b]quinolin-9-yl)acetic acid], the “ABCA1 Induction Fold Increase” value was 5.0 FOLD INCREASE. With `CC(C)Oc1ccc2c(c1)C(C)(C)C1COc3c(F)cccc3[C@H]1N2` (stereo partly drawn) [Number 103, (12aS)-4-fluoro-7,7-dimethyl-9-(methylethoxy)-7,12,12a,6a-tetrahydrochromano[4,3-b]quinoline] the “ABCA1 Induction Fold Increase” value was 4.0 FOLD INCREASE. For `CNS(=O)(=O)Cc1ccc2c(c1)C(C)(C)C1COc3c(OC)cccc3C1N2` (centres unmarked) [Number 59, {[(4-methoxy-7,7-dimethyl(7,12,12a,6a-tetrahydrochromano[4,3-b]quinolin-9-yl))methyl]sulfonyl}methylamine], the “ABCA1 Induction Fold Increase” value was 6.1 FOLD INCREASE. With `C#Cc1ccc2c(c1)C(C)(C)[C@H]1COc3cccc(OC)c3[C@H]1N2` [Number 95, (12aS,6aR)-9-ethynyl-1-methoxy-7,7-dimethyl-7,12,12a,6a-tetrahydrochromano[4,3-b]quinoline] the “ABCA1 Induction Fold Increase” value was 4.3 FOLD INCREASE. In the case of `COc1cccc2c1[C@H]1Nc3ccc(-c4ccc(CCC(=O)O)cc4)cc3C(C)(C)[C@H]1CO2` [Number 114, 3-[4-((12aS,6aR)-1-methoxy-7,7-dimethyl-7,12,12a,6a-tetrahydrochromano[4,3-b]quinolin-9-yl)phenyl]propanoic acid], the “ABCA1 Induction Fold Increase” value is reported as 2.7 FOLD INCREASE. In the case of `Cc1cccc2c1OCC1C2Nc2ccc(C(O)(C(F)(F)F)C(F)(F)F)cc2C1(C)C` (centres unmarked) [Number 18, 1,1,1,3,3,3-hexafluoro-2-(4,7,7-trimethyl(7,12,12a,6a-tetrahydrochromano[4,3-b]quinolin-9-yl))propan-2-ol], the “ABCA1 Induction Fold Increase” value is reported as 5.3 FOLD INCREASE. `CCS(=O)(=O)N1CCN(C(=O)c2coc(-c3ccc4c(c3)C(C)(C)[C@H]3COc5cccc(OC)c5[C@H]3N4)n2)CC1` [Number 147, 2-((6aR,12aS)-1-methoxy-6a,7,12,12a-tetrahydro-7,7-dimethyl-6H-chromeno[4,3-b]quinolin-9-yl)oxazole-(4-(4-ethanesulfonylpiperazin-1-yl)methanone)] was tested, and the “ABCA1 Induction Fold Increase” value was 7 FOLD INCREASE. With `CC1(C)c2cc(-c3nc(C(=O)N4CCS(=O)(=O)CC4)co3)ccc2N[C@@H]2c3c(F)cccc3OC[C@@H]21` [Number 143, 2-((6aR,12aS)-1-fluoro-6a,7,12,12a-tetrahydro-7,7-dimethyl-6H-chromeno[4,3-b]quinolin-9-yl)oxazole-(4-(1,1-dione-1,4-thiazaperhydroin-yl)methanone)] the “ABCA1 Induction Fold Increase” value was 6.1 FOLD INCREASE.

Same assay, conditions: Homo sapiens, 10 μM test compound, 18-20 hours, read-out: ABCA1 Induction Fold Increase over DMSO Vehicle
Molecule `COc1cccc2c1[C@H]1Nc3ccc(-n4cc(C(=O)O)cn4)cc3C(C)(C)[C@H]1CO2` [Number 136, 1-((6aR,12aS)-6a,7,12,12a-tetrahydro-1-methoxy-7,7-dimethyl-6H-chromeno[4,3-b]quinolin-9-yl)-1H-pyrazole-4-carboxylic acid] has a fold induction at 10 µM of 4.1. Work on `COc1cccc2c1OC[C@H]1[C@@H]2Nc2ccc(C(=O)N3CCOCC3)cc2C1(C)C` [Number 119, ((6aR,12aS)-6a,7,12,12a-tetrahydro-4-methoxy-7,7-dimethyl-6H-chromeno[4,3-b]quinolin-9-yl)(morpholino)methanone] yielded a fold induction at 10 µM of 7.5. In the case of `COc1cccc2c1[C@H]1Nc3ccc(S(C)(=O)=O)cc3C(C)(C)[C@H]1CO2` [Number 122, (6aR,12aS)-6a,7,12,12a-tetrahydro-1-methoxy-7,7-dimethyl-9-(methylsulfonyl)-6H-chromeno[4,3-b]quinoline], the fold induction at 10 µM is reported as 2.4. Work on `CCCN1c2ccccc2C(C)(C)[C@@H]2COc3cccc(OC)c3[C@H]21` [Number 173, (6aS,12aS)-12-propyl-6a,7,12,12a-tetrahydro-1-methoxy-7,7-dimethyl-6H-chromeno[4,3-b]quinoline] yielded a fold induction at 10 µM of 1.8. `COC(=O)c1ccc2c(c1)C(C)(C)[C@H]1COc3c(OC)cc(-c4cn[nH]c4)cc3[C@H]1N2` [Number 161, (6aR,12aS)-methyl 6a,7,12,12a-tetrahydro-4-methoxy-7,7-dimethyl-2-(1H-pyrazol-4-yl)-6H-chromeno[4,3-b]quinoline-9-carboxylate] showed a fold induction at 10 µM of 8.1. Molecule `CCOP(=O)(Cc1ccc2c(c1)C(C)(C)[C@H]1COc3c(OC)cc(-c4cn[nH]c4)cc3[C@H]1N2)OCC` [Number 181, diethyl((6aR,12aS)-6a,7,12,12a-tetrahydro-4-methoxy-7,7-dimethyl-2-(1H-pyrazol-4-yl)-6H-chromeno[4,3-b]quinolin-9-yl)methylphosphonate] has a fold induction at 10 µM of 4.9. In the case of `COc1cccc2c1[C@H]1Nc3ccc(S(=O)(=O)CC(=O)O)cc3C(C)(C)[C@H]1CO2` [Number 124, 2-((6aR,12aS)-6a,7,12,12a-tetrahydro-1-methoxy-7,7-dimethyl-6H-chromeno[4,3-b]quinolin-9-ylsulfonyl)acetic acid], the fold induction at 10 µM is reported as 3.3. `COc1cccc2c1[C@H]1Nc3ccc(C(=O)NCCO)cc3C(C)(C)[C@H]1CO2` [Number 117, (6aR,12aS)-6a,7,12,12a-tetrahydro-N-(2-hydroxyethyl)-1-methoxy-7,7-dimethyl-6H-chromeno[4,3-b]quinoline-9-carboxamide] gave a fold induction at 10 µM of 8.6.
